Experimental findings from patent US12084472B2 (Ardelyx, Inc., priority 2015, dated 2024) are described below.

For the assay, the target named is T1, human TGR5 (Homo sapiens, UniProt Q8TDU6).
T1 construct: expressed in transfected cells; host or cells: HEK293
T1 sequence (Q8TDU6 1-330): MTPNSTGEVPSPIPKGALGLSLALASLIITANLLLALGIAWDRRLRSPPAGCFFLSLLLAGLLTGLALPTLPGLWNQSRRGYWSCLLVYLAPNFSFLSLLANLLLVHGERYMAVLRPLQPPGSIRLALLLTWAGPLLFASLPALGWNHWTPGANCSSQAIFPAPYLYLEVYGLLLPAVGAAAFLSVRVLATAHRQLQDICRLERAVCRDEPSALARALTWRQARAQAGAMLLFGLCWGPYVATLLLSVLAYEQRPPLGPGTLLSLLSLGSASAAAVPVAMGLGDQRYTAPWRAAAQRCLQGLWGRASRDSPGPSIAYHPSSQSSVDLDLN
Nature of the assay: Cell-based TGR5 assay (cAMP generation, HTRF). As to conditions: HEK293 cells stably transfected with human TGR5; cAMP by HTRF; 30 minutes at 37° C.; read-out: pEC50 Human TGR5 (converted). The essentials: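 First, compounds in 3-fold serial dilution were placed in HBSS with 10 mM HEPES pH 7.4 and 0.5 mM IBMX. Next, human TGR5-expressing HEK293 cells were added and incubated 30 min at 37° C. Finally, cAMP was detected by HTRF and pEC50 derived by logistic fitting.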
(TR-FRET usually uses a lanthanide donor and a delayed reading to cut background.)
Turning to `O=C(/C=C/C1CCN(S(=O)(=O)c2ccc(Cl)c(COC3(c4cnccc4-c4ccccc4OC4CC4)CC3)c2)C1)NC[C@H](O)[C@@H](O)[C@H](O)[C@H](O)CO` (stereo partly drawn) [Compound I-450, (2E)-3-{1-[4-chloro-3-({1-[4-(2-cyclopropoxyphenyl)pyridin-3-yl]cyclopropoxy}methyl)benzenesulfonyl]pyrrolidin-3-yl}-N-[(2S,3R,4R,5R)-2,3,4,5,6-pentahydroxyhexyl]prop-2-enamide], the EC50 is below 100 nM.
With `O=C(CCC1CCN(S(=O)(=O)c2ccc(Cl)c(COC3(c4cnccc4-c4ccccc4OC4CC4)CC3)c2)C1)NC[C@H](O)[C@@H](O)[C@H](O)[C@H](O)CO` (stereo partly drawn) [Compound I-451, 3-{1-[4-chloro-3-({-[4-(2-cyclopropoxyphenyl)pyridin-3-yl]cyclopropoxy}methyl)benzenesulfonyl]pyrrolidin-3-yl}-N-[(2S,3R,4R,5R)-2,3,4,5,6-pentahydroxyhexyl]propanamide] the figure was below 100 nM; with `O=C(/C=C/CC1CN(S(=O)(=O)c2ccc(Cl)c(COC3(c4cnccc4-c4ccccc4OC4CC4)CC3)c2)C1)NC[C@H](O)[C@@H](O)[C@H](O)[C@H](O)CO` [Compound I-452, (2E)-4-{1-[4-chloro-3-({1-[4-(2-cyclopropoxyphenyl)pyridin-3-yl]cyclopropoxy}methyl)benzenesulfonyl]azetidin-3-yl}-N-[(2S,3R,4R,5R)-2,3,4,5,6-pentahydroxyhexyl]but-2-enamide], below 100 nM; with `O=C(CCCC1CN(S(=O)(=O)c2ccc(Cl)c(COC3(c4cnccc4-c4ccccc4OC4CC4)CC3)c2)C1)NC[C@H](O)[C@@H](O)[C@H](O)[C@H](O)CO` [Compound I-453, 4-{1-[4-chloro-3-({1-[4-(2-cyclopropoxyphenyl)pyridin-3-yl]cyclopropoxy}methyl)benzenesulfonyl]azetidin-3-yl}-N-[(2S,3R,4R,5R)-2,3,4,5,6-pentahydroxyhexyl]butanamide], below 100 nM.
To `O=C(COC1CN(S(=O)(=O)c2ccc(Cl)c(COC3(c4cnccc4-c4ccccc4OC4CC4)CC3)c2)C1)NC[C@H](O)[C@@H](O)[C@H](O)[C@H](O)CO` [Compound I-454, 2-({1-[4-chloro-3-({1-[4-(2-cyclopropoxyphenyl)pyridin-3-yl]cyclopropoxy}methyl)benzenesulfonyl]azetidin-3-yl}oxy)-N-[(2S,3R,4R,5R)-2,3,4,5,6-pentahydroxyhexyl]acetamide] belongs 126 to 1000 nM.
With `O=C(COCC1CCN(S(=O)(=O)c2ccc(Cl)c(COC3(c4cnccc4-c4ccccc4OC4CC4)CC3)c2)C1)NC[C@H](O)[C@@H](O)[C@H](O)[C@H](O)CO` (stereo partly drawn) [Compound I-455, 2-({1-[4-chloro-3-({1-[4-(2-cyclopropoxyphenyl)pyridin-3-yl]cyclopropoxy}methyl)benzenesulfonyl]pyrrolidin-3-yl}methoxy)-N-[(2S,3R,4R,5R)-2,3,4,5,6-pentahydroxyhexyl]acetamide] the figure was below 100 nM; with `O=C(COCC1CN(S(=O)(=O)c2ccc(Cl)c(COC3(c4cnccc4-c4ccccc4OC4CC4)CC3)c2)C1)NC[C@H](O)[C@@H](O)[C@H](O)[C@H](O)CO` [Compound I-456, 2-({1-[4-chloro-3-({1-[4-(2-cyclopropoxyphenyl)pyridin-3-yl]cyclopropoxy}methyl)benzenesulfonyl]azetidin-3-yl}methoxy)-N-[(2S,3R,4R,5R)-2,3,4,5,6-pentahydroxyhexyl]acetamide], below 100 nM.
With `CS(=O)(=O)CCN(CCCCNS(=O)(=O)c1ccc(Cl)c(COC2(c3cnccc3-c3ccccc3OC3CC3)CC2)c1)C(=O)[C@@H](O)[C@@H](O)[C@H](O)[C@@H](O)CO` [Compound I-457, (2S,3S,4R,5S)-N-{4-[4-chloro-3-({1-[4-(2-cyclopropoxyphenyl)pyridin-3-yl]cyclopropoxy}methyl)benzenesulfonamido]butyl}-2,3,4,5,6-pentahydroxy-N-(2-methanesulfonylethyl) hexanamide], the EC50 is below 100 nM.
To `CN(CCCCNC(=O)[C@@H](O)[C@@H](O)[C@H](O)[C@@H](O)CO)S(=O)(=O)c1ccc(Cl)c(COC2(c3cnccc3-c3ccccc3OC3CC3)CC2)c1` [Compound I-458, (2S,3S,4R,5S)-2,3,4,5,6-pentahydroxy-N-{4-[N-methyl4-chloro-3-({1-[4-(2-cyclopropoxyphenyl)pyridin-3-yl]cyclopropoxy}methyl)benzenesulfonamido]butyl}hexanamide] belongs below 100 nM; to `CN(CCCCN(CCS(C)(=O)=O)C(=O)[C@@H](O)[C@@H](O)[C@H](O)[C@@H](O)CO)S(=O)(=O)c1ccc(Cl)c(COC2(c3cnccc3-c3ccccc3OC3CC3)CC2)c1` [Compound I-459, (2S,3S,4R,5S)-2,3,4,5,6-pentahydroxy-N-(2-methanesulfonylethyl)-N-{4-[N-methyl4-chloro-3-({1-[4-(2-cyclopropoxyphenyl)pyridin-3-yl]cyclopropoxy}methyl)benzenesulfonamido]butyl}hexanamide], below 100 nM.
On to `CN(CCCCNS(=O)(=O)c1ccc(Cl)c(COC2(c3cnccc3-c3ccccc3OC3CC3)CC2)c1)C(=O)[C@@H](O)[C@@H](O)[C@H](O)[C@@H](O)CO` [Compound I-460, (2S,3S,4R,5S)-N-{4-[4-chloro-3-({1-[4-(2-cyclopropoxyphenyl)pyridin-3-yl]cyclopropoxy}methyl)benzenesulfonamido]butyl}-2,3,4,5,6-pentahydroxy-N-methylhexanamide], for which the EC50 is below 100 nM.
With `CN(CCCCN(C)S(=O)(=O)c1ccc(Cl)c(COC2(c3cnccc3-c3ccccc3OC3CC3)CC2)c1)C(=O)[C@@H](O)[C@@H](O)[C@H](O)[C@@H](O)CO` [Compound I-461, (2S,3S,4R,5S)-2,3,4,5,6-pentahydroxy-N-methyl-N-{4-[N-methyl4-chloro-3-({1-[4-(2-cyclopropoxyphenyl)pyridin-3-yl]cyclopropoxy}methyl)benzenesulfonamido]butyl}hexanamide] the figure was below 100 nM; with `O=C(NCCC1CCN(S(=O)(=O)c2ccc(Cl)c(COC3(c4cnccc4-c4ccccc4OC4CC4)CC3)c2)CC1)[C@@H](O)[C@@H](O)[C@H](O)[C@@H](O)CO` [Compound I-462, (2S,3S,4R,5S)-N-(2-{1-[4-chloro-3-({1-[4-(2-cyclopropoxyphenyl)pyridin-3-yl]cyclopropoxy}methyl)benzenesulfonyl]piperidin-4-yl}ethyl)-2,3,4,5,6-pentahydroxyhexanamide], below 100 nM.
Regarding `CCN(CCCCN)S(=O)(=O)c1ccc(Cl)c(COC2(c3cnccc3-c3ccccc3OC3CC3)CC2)c1` [Compound I-463, N-(4-aminobutyl)-4-chloro-3-({1-[4-(2-cyclopropoxyphenyl)pyridin-3-yl]cyclopropoxy}methyl)-N-ethylbenzene-1-sulfonamide], the EC50 is below 100 nM.
With `CN(CCCCNC(=O)NC[C@H](O)[C@@H](O)[C@H](O)[C@H](O)CO)S(=O)(=O)c1ccc(Cl)c(COC2(c3cnccc3-c3ccccc3OC3COC3)CC2)c1` [Compound I-464, 1-(4-{N-methyl4-chloro-3-[(1-{4-[2-(oxetan-3-yloxy)phenyl]pyridin-3-yl}cyclopropoxy)methyl]benzenesulfonamido}butyl)-3-[(2S,3R,4R,5R)-2,3,4,5,6-pentahydroxyhexyl]urea] the figure was below 100 nM; with `CCN(CCCCNC(=O)N[C@@H](CO)[C@@H](O)[C@H](O)[C@H](O)CO)S(=O)(=O)c1ccc(Cl)c(COC2(c3cnccc3-c3ccccc3OC3CC3)CC2)c1` [Compound I-465, 1-{4-[N-ethyl4-chloro-3-({1-[4-(2-cyclopropoxyphenyl)pyridin-3-yl]cyclopropoxy}methyl)benzenesulfonamido]butyl}-3-[(2S,3R,4S,5R)-1,3,4,5,6-pentahydroxyhexan-2-yl]urea], below 100 nM.
In the case of `CN(CCCCNC(=O)NC[C@H](O)[C@@H](O)[C@H](O)[C@H](O)CO)S(=O)(=O)c1cc(COC2(c3cnccc3-c3ccccc3OC3CC3)CC2)c(Cl)cc1F` [Compound I-466, 1-{4-[N-methyl4-chloro-5-({1-[4-(2-cyclopropoxyphenyl)pyridin-3-yl]cyclopropoxy}methyl)-2-fluorobenzenesulfonamido]butyl}-3-[(2S,3R,4R,5R)-2,3,4,5,6-pentahydroxyhexyl]urea], the EC50 was below 100 nM.
To `CN(CCCCNC(=O)NC[C@H](O)[C@@H](O)[C@H](O)[C@H](O)CO)S(=O)(=O)c1cc(COC2(c3cnccc3-c3ccccc3OC3CC3)CC2)c(Cl)cc1Cl` [Compound I-467, 1-{4-[N-methyl2,4-dichloro-5-({1-[4-(2-cyclopropoxyphenyl)pyridin-3-yl]cyclopropoxy}methyl)benzenesulfonamido]butyl}-3-[(2S,3R,4R,5R)-2,3,4,5,6-pentahydroxyhexyl]urea] belongs below 100 nM.
Turning to `CN(CCCCNC(=O)NC[C@H](O)[C@@H](O)[C@H](O)[C@H](O)CO)S(=O)(=O)c1ccc(C(F)(F)F)c(CNC2(c3cnccc3-c3ccccc3OC3CC3)CC2)c1` [Compound I-468, 1-(4-{N-methyl3-[({11-[4-(2-cyclopropoxyphenyl)pyridin-3-yl]cyclopropyl}amino)methyl]-4-(trifluoromethyl)benzenesulfonamido}butyl)-3-[(2S,3R,4R,5R)-2,3,4,5,6-pentahydroxyhexyl]urea], the EC50 was 126 to 1000 nM.
